Laboratory results reported in ChEMBL document CHEMBL1201862, “PubChem BioAssay data set” (2004).
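Protocol summary: plate cells (96-well), add compound at 5 concentrations, incubate 48 h, interpolate endpoints linearly. The concentration for 50% growth inhibition is given as GI50.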 Activity calls are given as the source filed them. No stated cut-off is given here; in the data, active = GI50 up to about 1.1 µM and inactive = higher.

How the values were obtained:
Assay in all cases: NCI-60 cell line screen, 48 h
A549 = tested on: A549
BT-549 = tested on: BT-549
CCRF-CEM = tested on: CCRF-CEM
COLO 205 = tested on: COLO 205
HCT-116 = tested on: HCT-116
HCT-15 = tested on: HCT-15
K562 = tested on: K562
LOX IMVI = tested on: LOX IMVI
NCI-H23 = tested on: NCI-H23
NCI-H460 = tested on: NCI-H460
OVCAR-5 = tested on: OVCAR-5
RXF 393 = tested on: RXF 393
SK-MEL-2 = tested on: SK-MEL-2
SK-MEL-5 = tested on: SK-MEL-5
SK-OV-3 = tested on: SK-OV-3
TK-10 = tested on: TK-10
U-251 = tested on: U-251
UACC-257 = tested on: UACC-257
UACC-62 = tested on: UACC-62
UO-31 = tested on: UO-31

| Structure (SMILES) | GI50 (A549) | GI50 (BT-549) | GI50 (CCRF-CEM) | GI50 (COLO 205) | GI50 (HCT-116) | GI50 (HCT-15) [µM] | GI50 (K562) | GI50 (LOX IMVI) | GI50 (NCI-H23) | GI50 (NCI-H460) | GI50 (OVCAR-5) | GI50 (RXF 393) | GI50 (SK-MEL-2) | GI50 (SK-MEL-5) | GI50 (SK-OV-3) | GI50 (TK-10) | GI50 (U-251) | GI50 (UACC-257) | GI50 (UACC-62) | GI50 (UO-31) |
| --- | --- | --- | --- | --- | --- | --- | --- | --- | --- | --- | --- | --- | --- | --- | --- | --- | --- | --- | --- | --- |
| CC(C)(C)OC(=O)C(C1NC(C(=O)O)C(C)(C)S1)N1C(=O)c2ccccc2C1=O (stereo not given) | > 100 µM (inactive) | > 100 µM (inactive) | > 100 µM (inactive) | > 100 µM (inactive) | > 100 µM (inactive) | > 100 | > 100 µM (inactive) | > 100 µM (inactive) | > 100 µM (inactive) | > 100 µM (inactive) | > 100 µM (inactive) | > 100 µM (inactive) | > 100 µM (inactive) | > 100 µM (inactive) | > 100 µM (inactive) | > 100 µM (inactive) | > 100 µM (inactive) | > 100 µM (inactive) | > 100 µM (inactive) | > 100 µM (inactive) |
| Oc1ccc(-c2nc(-c3cccnc3)c(-c3ccc(F)cc3)[nH]2)cc1 | 21.8 µM (inactive) | 16.6 µM (inactive) | 10.7 µM (inactive) | 19.5 µM (inactive) | 17.4 µM (inactive) | 22.7 | 16 µM (inactive) | 12.5 µM (inactive) | 12.7 µM (inactive) | 23.3 µM (inactive) | 30.2 µM (inactive) | 17.6 µM (inactive) | 17.9 µM (inactive) | 16.3 µM (inactive) | 23.4 µM (inactive) | 18.6 µM (inactive) | 17.3 µM (inactive) | 17.6 µM (inactive) | 16 µM (inactive) | > 10 µM (inactive) |
| CN(Cc1c2ccccc2cc2ccccc12)S(=O)(=O)c1ccc(-c2c3nc(c(-c4ccc(S(=O)(=O)N(C)Cc5c6ccccc6cc6ccccc56)cc4)c4ccc([nH]4)c(-c4ccc(S(=O)(=O)N(C)Cc5c6ccccc6cc6ccccc56)cc4)c4nc(c(-c5ccc(S(=O)(=O)N(C)Cc6c7ccccc7cc7ccccc67)cc5)c5ccc2[nH]5)C=C4)C=C3)cc1 | > 100 µM (inactive) | > 100 µM (inactive) | > 100 µM (inactive) | > 100 µM (inactive) | > 100 µM (inactive) | > 100 | > 100 µM (inactive) | > 100 µM (inactive) | > 100 µM (inactive) | > 100 µM (inactive) | > 100 µM (inactive) | 42.1 µM (inactive) | > 100 µM (inactive) | > 100 µM (inactive) | > 100 µM (inactive) | > 100 µM (inactive) | 47.2 µM (inactive) | > 100 µM (inactive) | > 100 µM (inactive) | > 100 µM (inactive) |
| CC1CCC2(CC1)N=C1CCC(C)CC1C1(CCC(C)CC1)N2 (stereo not given) | > 100 µM (inactive) | > 100 µM (inactive) | 24.3 µM (inactive) | > 100 µM (inactive) | 36 µM (inactive) | 84.7 | 30.4 µM (inactive) | > 100 µM (inactive) | 95.7 µM (inactive) | > 100 µM (inactive) | > 100 µM (inactive) | > 100 µM (inactive) | > 100 µM (inactive) | 29.7 µM (inactive) | > 100 µM (inactive) | > 100 µM (inactive) | 78.7 µM (inactive) | 83.6 µM (inactive) | > 100 µM (inactive) | > 100 µM (inactive) |
| CS(=O)(=O)c1nc(-c2cc3c(c(S(C)(=O)=O)n2)CCC3)cc2c1CCC2 | > 100 µM (inactive) | > 100 µM (inactive) | > 100 µM (inactive) | > 100 µM (inactive) | > 100 µM (inactive) | > 100 | > 100 µM (inactive) | > 100 µM (inactive) | > 100 µM (inactive) | > 100 µM (inactive) | > 100 µM (inactive) | 33.7 µM (inactive) | > 100 µM (inactive) | > 100 µM (inactive) | > 100 µM (inactive) | > 100 µM (inactive) | 47.3 µM (inactive) | > 100 µM (inactive) | > 100 µM (inactive) | > 100 µM (inactive) |
| CC(C(=O)n1ccnc1)N1c2ccccc2Sc2ccccc21 (stereo not given) | > 100 µM (inactive) | > 100 µM (inactive) | 84.7 µM (inactive) | 79.3 µM (inactive) | > 100 µM (inactive) | 97.5 | 91.2 µM (inactive) | 82.8 µM (inactive) | 78.7 µM (inactive) | 92 µM (inactive) | 65.3 µM (inactive) | > 100 µM (inactive) | > 100 µM (inactive) | 35 µM (inactive) | 97.7 µM (inactive) | > 100 µM (inactive) | 64.4 µM (inactive) | 79.4 µM (inactive) | > 100 µM (inactive) | 70.1 µM (inactive) |
| CCOC(=O)CCC(NC(=O)c1ccc(OCc2nc3ccccc3n3cccc23)cc1)C(=O)OCC (stereo not given) | > 100 µM (inactive) | 71.9 µM (inactive) | 4.34 µM (inactive) | > 100 µM (inactive) | 36.3 µM (inactive) | 50.6 | 16.5 µM (inactive) | 42.8 µM (inactive) | 29.9 µM (inactive) | > 100 µM (inactive) | > 100 µM (inactive) | 36.6 µM (inactive) | > 100 µM (inactive) | 93.3 µM (inactive) | > 100 µM (inactive) | > 100 µM (inactive) | 17.3 µM (inactive) | 87.5 µM (inactive) | > 100 µM (inactive) | > 100 µM (inactive) |
| C=C(C)C1Cc2c(cc(OC)c3c(=O)c4cccc(O)c4oc23)O1 (stereo not given) | 31.8 µM (inactive) | 17.9 µM (inactive) | 74.6 µM (inactive) | 56.9 µM (inactive) | 24.8 µM (inactive) | 47.6 | > 100 µM (inactive) | 5.7 µM (inactive) | 26 µM (inactive) | 28.6 µM (inactive) | 72.9 µM (inactive) | 19.4 µM (inactive) | 18.6 µM (inactive) | 16.5 µM (inactive) | 19.5 µM (inactive) | 19.9 µM (inactive) | 16.8 µM (inactive) | 33 µM (inactive) | 18 µM (inactive) | 18 µM (inactive) |
| O=C(Nc1ccc(Cl)cc1)NS(=O)(=O)c1coc2cc(F)ccc2c1=O | > 100 µM (inactive) | > 100 µM (inactive) | 86.3 µM (inactive) | > 100 µM (inactive) | > 10 µM (inactive) | 19.9 | 19.7 µM (inactive) | > 100 µM (inactive) | > 100 µM (inactive) | > 100 µM (inactive) | > 100 µM (inactive) | > 100 µM (inactive) | 52.6 µM (inactive) | > 100 µM (inactive) | > 100 µM (inactive) | > 100 µM (inactive) | 62.2 µM (inactive) | > 100 µM (inactive) | 26.2 µM (inactive) | 86.3 µM (inactive) |
| O=C(O)c1ccccc1C(=O)Nc1cc2c(cc1Br)-c1ccccc1C2=O | > 100 µM (inactive) | > 100 µM (inactive) | 45.9 µM (inactive) | 68.5 µM (inactive) | > 100 µM (inactive) | > 100 | > 100 µM (inactive) | 81.1 µM (inactive) | > 100 µM (inactive) | > 100 µM (inactive) | > 100 µM (inactive) | 48 µM (inactive) | > 100 µM (inactive) | > 100 µM (inactive) | > 100 µM (inactive) | > 100 µM (inactive) | 87.5 µM (inactive) | > 100 µM (inactive) | > 100 µM (inactive) | > 100 µM (inactive) |
